Results: patent US20240417764A1, “METHODS FOR THE PRODUCTION OF TRYPTOPHANS, TRYPTAMINES, INTERMEDIATES, SIDE PRODUCTS AND DERIVATIVES” (priority 2021, published 2024)

Columns and labels:
[1] = molecular target: T1, endogenous Escherichia coli tryptophan synthase beta subunit (TrpB) (Escherichia coli, UniProt P0A879); assay: TrpB substrate flexibility, in vivo conversion of substituted indoles to tryptophans; type: cell-based; details: sampled at 24 h
T1 construct: Yield for production of tryptophan derivatives by native E. coli TrpB from indole derivatives; endogenous in cells; host or cells: E. coli BL21 Star (DE3) carrying pETM6-SDM2x (empty vector for the TrpB-alone study)
T1 sequence (P0A877 whole entry): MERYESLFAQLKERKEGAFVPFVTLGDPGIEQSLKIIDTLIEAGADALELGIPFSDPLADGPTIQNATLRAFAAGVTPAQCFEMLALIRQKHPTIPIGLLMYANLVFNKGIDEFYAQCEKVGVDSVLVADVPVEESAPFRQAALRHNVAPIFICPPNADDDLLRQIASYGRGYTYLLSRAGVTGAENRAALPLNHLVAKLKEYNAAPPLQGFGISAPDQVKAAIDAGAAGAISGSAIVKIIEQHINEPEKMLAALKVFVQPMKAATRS
T1 sequence (P0A879 2-397): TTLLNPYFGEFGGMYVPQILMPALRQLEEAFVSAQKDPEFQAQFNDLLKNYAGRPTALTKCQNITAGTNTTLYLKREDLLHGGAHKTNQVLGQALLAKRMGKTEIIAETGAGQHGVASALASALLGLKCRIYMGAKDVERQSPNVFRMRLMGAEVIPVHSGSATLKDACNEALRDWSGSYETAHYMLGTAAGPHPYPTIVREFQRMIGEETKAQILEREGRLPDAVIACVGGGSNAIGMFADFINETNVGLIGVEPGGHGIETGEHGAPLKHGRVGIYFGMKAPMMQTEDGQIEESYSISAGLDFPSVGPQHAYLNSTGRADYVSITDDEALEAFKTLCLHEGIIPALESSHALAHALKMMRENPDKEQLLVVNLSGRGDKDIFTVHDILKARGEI
Text: (§1) Four previously constructed BL21 Star™ (DE3) cell lines with pETM6-SDM2x plasmid backbones were used, each with endogenous Escherichia coli (E. coli) tryptophan synthase beta subunit (TrpB); (1) no gene insert (empty vector), (2) PsiD gene insert with T7 promoter, (3) PsiD-PsiK gene insert with C4 promoter in operon configuration (pNor, Norbaeocystin Production Strain) (Adams et al., 2022), and (4) PsiD-PsiK-PsiM gene insert with H10 promoter in operon configuration (pSilo16, Psilocybin Production Strain; See WO 2021/086513) (Adams et al., 2019). For the PsiD transcriptional optimization study, each of the nine previously described library members were used, in lieu of the strains above. Overnight cultures were grown in Andrew's Magic Media (AMM) without MOPS, appropriate antibiotics for plasmid retention, and were inoculated from freezer stocks. Experimental cultures were incubated in covered 48-well plates at 37° C. in a shaking incubator. AMM media consistent with above was inoculated at 2% final volume of respective overnight culture and 2 mL aliquoted to each well. Indole derivatives were added to each well, except negative control, at 100 mg/L using 5 uL from a 40 mg/mL stock in EtOH. 4-Nitroindole at 13.3 mg/mL in EtOH was added using 15 uL due to solubility limitations. Cultures were induced at 2 hours using 1 mM ITPG. Cultures were sampled at 24 hours and subjected to LC-MS analysis as described below. Cultures with serine added were identical to those without, except for adding 4.5 g/L of serine prior to inoculation.
Without commercially available standards for many of these compounds absolute quantification of enzymatic products is not possible. Peak areas from one substituted indole could not be compared directly to peak areas from another substituted indole due to significant differences in extinction coefficients. Relative quantification was performed by comparing product UV 280 nm peak areas from HPLC analysis (mAU*min) to that of the corresponding substituted indole. TrpB proficiencies with and without serine were calculated by dividing the tryptophan product peak areas by the total peak areas from the indole and tryptophan peaks. Tryptophan and indole peak areas were determined from duplicate samples with indole and subtraction of any time-correlated peak areas found in the samples without indole addition. Any other indole related peak areas found in indole samples were included in the denominator. Indole related peaks were defined as peaks found in indole samples, but absent from samples without indole addition. Similar calculations were performed for PsiD proficiencies where tryptamine peak areas were divided by the total area of associated tryptamine and tryptophan peaks. Indole utilization was also calculated for PsiD proficiencies where the remaining indole peak areas were divided by the initial peak areas.

P. cubensis PsiD = molecular target: T2, P. cubensis PsiD (Psilocybe cubensis, UniProt P0DPA6, L22F); assay: PsiD substrate flexibility, in vivo decarboxylation of substituted tryptophans to tryptamines; type: cell-based, Escherichia coli; details: in vivo in E. coli expressing PsiD, HPLC/LCMS detection
T2 construct: expressed in transfected cells; host or cells: E. coli BL21 Star (DE3); PsiD insert with the T7 promoter, or promoter/backbone library members, or pNor and pSilo16
T2 sequence (P0DPA6 whole entry, stated change not applied): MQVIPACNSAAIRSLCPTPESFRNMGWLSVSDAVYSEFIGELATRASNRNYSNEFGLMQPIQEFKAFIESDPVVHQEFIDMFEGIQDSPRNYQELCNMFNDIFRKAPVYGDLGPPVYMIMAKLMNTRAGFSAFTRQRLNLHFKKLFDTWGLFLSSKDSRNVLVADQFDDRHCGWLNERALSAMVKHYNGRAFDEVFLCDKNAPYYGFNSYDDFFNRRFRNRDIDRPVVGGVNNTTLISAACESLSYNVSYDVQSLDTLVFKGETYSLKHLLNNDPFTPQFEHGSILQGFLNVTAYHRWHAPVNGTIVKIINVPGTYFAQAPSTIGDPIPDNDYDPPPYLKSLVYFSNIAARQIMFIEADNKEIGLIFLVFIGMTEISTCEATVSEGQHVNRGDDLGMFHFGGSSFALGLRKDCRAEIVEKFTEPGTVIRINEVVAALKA
Text: as §1, with “Indole derivatives were added to each well, except negative control, at 100 mg/L using 5 uL from a 40 mg/mL stock in EtOH. 4-Nitroindole at 13.3 mg/mL in EtOH was added using 15 uL due to solubility limitations. Cultures were induced at 2 hours using 1 mM ITPG. Cultures were sampled at 24 hours and subjected to LC-MS analysis as described below. Cultures with serine added were identical to those without, except for adding 4.5 g/L of serine prior to inoculation.” left out
Without commercially available standards for many of these compounds absolute quantification of enzymatic products is not possible. […] Relative quantification was performed by comparing product UV 280 nm peak areas from HPLC analysis (mAU*min) to that of the corresponding substituted indole. TrpB proficiencies with and without serine were calculated by dividing the tryptophan product peak areas by the total peak areas from the indole and tryptophan peaks. Tryptophan and indole peak areas were determined from duplicate samples with indole and subtraction of any time-correlated peak areas found in the samples without indole addition. […] Indole utilization was also calculated for PsiD proficiencies where the remaining indole peak areas were divided by the initial peak areas.
PsiD substrate flexibility was evaluated jointly in vivo with TrpB, such that if indoles were not sufficiently processed by TrpB, then PsiD activity could not be evaluated. […]

E. coli BL21 Star (DE3) = assay: Culture growth of E. coli production host supplemented with indole derivatives; type: cell-based, Escherichia coli; details: indole derivative 100 mg/L in 48-well culture, 37 C, compared visually with other indoles
Text: as §1
Other indoles may have slowed cell growth, but the differences were not easily distinguishable visually as OD600 reading were not taken for every sample.

[2] = without supplemental serine, indole 100 mg/L, tryptophan peak area / total indole-related peak areas (UV 280 nm)
[3] = with supplemental serine 4.5 g/L

SMILES | TrpB proficiency (class) [1, 2] | TrpB proficiency [1, 3] [%] | culture growth retardation (toxicity effects of the indole derivatives) (E. coli BL21 Star (DE3)) | other results
Clc1cc2ccccc2[nH]1 [2-chloroindole] | moderate (35-65%) or low proficiency (5-35%) | – | – | –
N[C@@H](Cc1c(Cl)[nH]c2ccccc12)C(=O)O [2-chlorotryptophan] | – | – | – | PsiD conversion to tryptamine product (P. cubensis PsiD): neither tryptamine product was observed
Cc1cc2ccccc2[nH]1 [2-methylindole] | – | 100 | – | PsiD conversion to tryptamine product (P. cubensis PsiD): no tryptamine product could be detected
Cc1[nH]c2ccccc2c1C[C@H](N)C(=O)O [2-methyltryptophan] | – | – | – | PsiD conversion to tryptamine product (P. cubensis PsiD): neither tryptamine product was observed
Nc1cccc2[nH]ccc12 [4-aminoindole] | moderate (35-65%) or low proficiency (5-35%) | 23 | significant culture growth retardation | –
Brc1cccc2[nH]ccc12 [4-bromoindole] | moderate (35-65%) or low proficiency (5-35%) | – | significant culture growth retardation | –
Clc1cccc2[nH]ccc12 [4-chloroindole] | moderate (35-65%) or low proficiency (5-35%) | – | significant culture growth retardation | –
Fc1cccc2[nH]ccc12 [4-fluoroindole] | moderate (35-65%) or low proficiency (5-35%) | 100 | significant culture growth retardation | TrpB proficiency [1, 2]: 27%
Oc1cccc2[nH]ccc12 [4-hydroxyindole] | – | 100 | – | –
Ic1cccc2[nH]ccc12 [4-iodoindole] | moderate (35-65%) or low proficiency (5-35%) | – | significant culture growth retardation | –
COc1cccc2[nH]ccc12 [4-methoxyindole] | moderate (35-65%) or low proficiency (5-35%) | – | – | –
Cc1cccc2[nH]ccc12 [4-methylindole] | moderate (35-65%) or low proficiency (5-35%) | 93 | significant culture growth retardation | TrpB proficiency [1, 2]: 22%
Brc1ccc2[nH]ccc2c1 [5-bromoindole] | – | – | significant culture growth retardation | –
Clc1ccc2[nH]ccc2c1 [5-chloroindole] | – | – | significant culture growth retardation | –
Fc1ccc2[nH]ccc2c1 [5-fluoroindole] | moderate (35-65%) or low proficiency (5-35%) | – | significant culture growth retardation | –
Oc1ccc2[nH]ccc2c1 [5-hydroxyindole] | moderate (35-65%) or low proficiency (5-35%) | – | – | –
Ic1ccc2[nH]ccc2c1 [5-iodoindole] | – | – | significant culture growth retardation | –

SMILES | TrpB proficiency (class) [1, 2] | TrpB proficiency [1, 3] [%] | culture growth retardation (toxicity effects of the indole derivatives) (E. coli BL21 Star (DE3)) | other results
COc1ccc2[nH]ccc2c1 [5-methoxyindole] | moderate (35-65%) or low proficiency (5-35%) | – | – | –
Cc1ccc2[nH]ccc2c1 [5-methylindole] | moderate (35-65%) or low proficiency (5-35%) | – | – | –
Brc1ccc2cc[nH]c2c1 [6-bromoindole] | moderate (35-65%) or low proficiency (5-35%) | – | significant culture growth retardation | –
Clc1ccc2cc[nH]c2c1 [6-chloroindole] | moderate (35-65%) or low proficiency (5-35%) | – | significant culture growth retardation | –
Fc1ccc2cc[nH]c2c1 [6-fluoroindole] | moderate (35-65%) or low proficiency (5-35%) | – | significant culture growth retardation | –
Oc1ccc2cc[nH]c2c1 [6-hydroxyindole] | – | 3 | – | –
Ic1ccc2cc[nH]c2c1 [6-iodoindole] | moderate (35-65%) or low proficiency (5-35%) | – | significant culture growth retardation | –
COc1ccc2cc[nH]c2c1 [6-methoxyindole] | moderate (35-65%) or low proficiency (5-35%) | – | – | –
O=[N+]([O-])c1ccc2cc[nH]c2c1 [6-nitroindole] | – | – | significant culture growth retardation | –
Nc1cccc2cc[nH]c12 [7-aminoindole] | moderate (35-65%) or low proficiency (5-35%) | – | – | –
Brc1cccc2cc[nH]c12 [7-bromoindole] | – | 100 | – | –
N#Cc1cccc2cc[nH]c12 [7-cyanoindole] | moderate (35-65%) or low proficiency (5-35%) | – | – | –
Fc1cccc2cc[nH]c12 [7-fluoroindole] | moderate (35-65%) or low proficiency (5-35%) | 95 | significant culture growth retardation | TrpB proficiency [1, 2]: 45%
Oc1cccc2cc[nH]c12 [7-hydroxyindole] | – | 100 | – | –
Ic1cccc2cc[nH]c12 [7-iodoindole] | – | 100 | – | –
COc1cccc2cc[nH]c12 [7-methoxyindole] | – | 100 | – | –
Cc1cccc2cc[nH]c12 [7-methylindole] | – | 100 | – | –
